Assay results as given in ChEMBL document CHEMBL1201862, “PubChem BioAssay data set” (2004).
Values belong to the compound of their own block, whether it stands above or below them. Activity calls are given as the source filed them.

Key:
[1] = target: Serine/threonine-protein kinase pim-1 (Homo sapiens, UniProt P11309); assay type: functional
[2] = target: High affinity nerve growth factor receptor (Homo sapiens, UniProt P04629); assay type: functional;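 also: NTRK1 tested as one member of a kinome-wide profiling panel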
[3] = target: Hepatocyte growth factor receptor (Homo sapiens, UniProt P08581); assay type: functional;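 also: kinase panel profiling across the kinome, with MET as the panel member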
[4] = target: Cyclin-dependent kinase 19 (Homo sapiens, UniProt Q9BWU1); assay: Navigating the Kinome. Panel member name: CDC2L6; assay type: functional
[5] = target: Leukocyte tyrosine kinase receptor (Homo sapiens, UniProt P29376); assay: Navigating the Kinome. Panel member name: LTK; assay type: functional
[6] = target: FAD-linked sulfhydryl oxidase ALR (Homo sapiens, UniProt P55789); assay: inhibitors of human ALR sulfhydryl oxidase, dose response, biochemical, H2O2 detection, luminescence, cherry-pick (AID 493248)
[7] = target: T1, High affinity choline transporter 1 (Homo sapiens, UniProt Q9GZV3); assay: CHT inhibitors, dose response, cell-based, 5-point CRC, membrane potential dye (AID 504840); assay type: functional
T1 sequence (Q9GZV3 whole entry): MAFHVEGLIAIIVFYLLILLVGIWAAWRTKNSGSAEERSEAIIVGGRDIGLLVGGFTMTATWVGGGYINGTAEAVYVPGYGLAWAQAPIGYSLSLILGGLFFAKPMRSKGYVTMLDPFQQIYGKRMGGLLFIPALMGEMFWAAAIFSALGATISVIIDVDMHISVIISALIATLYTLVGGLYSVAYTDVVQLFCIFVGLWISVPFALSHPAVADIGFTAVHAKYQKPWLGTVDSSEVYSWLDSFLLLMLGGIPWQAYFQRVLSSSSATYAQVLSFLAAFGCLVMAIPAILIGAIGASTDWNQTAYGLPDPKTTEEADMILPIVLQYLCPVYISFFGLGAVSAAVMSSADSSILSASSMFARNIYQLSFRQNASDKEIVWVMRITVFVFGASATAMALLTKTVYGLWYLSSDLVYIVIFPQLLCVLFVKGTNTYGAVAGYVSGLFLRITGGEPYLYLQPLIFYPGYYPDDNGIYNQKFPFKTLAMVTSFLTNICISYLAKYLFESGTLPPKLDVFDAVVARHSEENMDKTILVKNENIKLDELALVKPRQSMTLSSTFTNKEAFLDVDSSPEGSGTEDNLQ

[8] = target: T1, High affinity choline transporter 1; assay: CHT inhibitors, dose response, cell-based, 10-point CRC, membrane potential dye (AID 588401); assay type: functional;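 also: membrane potential dye fluorescence of choline-evoked depolarization via CHT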
[9] = target: MAP kinase-activated protein kinase 3 (Homo sapiens, UniProt Q16644); assay type: functional;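 also: value comes from a kinome-wide profiling panel in which MAPKAPK3 is one of the panel members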
[10] = target: Lymphokine-activated killer T-cell-originated protein kinase (Homo sapiens, UniProt Q96KB5); assay type: functional;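 also: value comes from a kinase panel screen in which TOPK was one of the panel members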
[11] = target: Casein kinase II subunit alpha (Homo sapiens, UniProt P68400); assay type: functional
Aurora kinase B = Aurora kinase B (Homo sapiens, UniProt Q96GD4); assay type: functional
[12] = target: Mitogen-activated protein kinase kinase kinase kinase 5 (Homo sapiens, UniProt Q9Y4K4); assay type: functional;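 also: measured as one member of a kinome-spanning kinase panel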
[13] = target: ALK tyrosine kinase receptor (Homo sapiens, UniProt Q9UM73); assay type: functional;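 also: ALK tested as one member of a kinase panel screen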
Wee1-like protein kinase = Wee1-like protein kinase (Homo sapiens, UniProt P30291); assay: Navigating the Kinome. Panel member name: WEE1; assay type: functional
[14] = target: Neuropeptides B/W receptor type 1 (Homo sapiens, UniProt P48145); assay: GPR7 antagonist potency, late-stage follow-up, cell-based, fluorescence, dose response, set 5 (AID 588566); assay type: functional
[15] = target: Melanin-concentrating hormone receptor 1 (Homo sapiens, UniProt Q99705); assay: Late-stage fluorescence-based counterscreen for antagonists of the G-protein coupled receptor 7 (GPR7): cell-based dose response assay to identify antagonists of the melanin-concentrating hormone receptor 1 (MCHR1) Set 5.; assay type: functional
LIM domain kinase 1 = LIM domain kinase 1 (Homo sapiens, UniProt P53667); assay: Navigating the Kinome. Panel member name: LIMK1; assay type: functional
[16] = target: Serine/threonine-protein kinase Chk1 (Homo sapiens, UniProt O14757); assay type: functional;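 also: measured as one member of a kinome-wide kinase profiling panel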
[17] = target: Macrophage colony-stimulating factor 1 receptor (Homo sapiens, UniProt P07333); assay type: functional;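 also: value comes from the Navigating the Kinome screening panel, CSF1R member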

Sequence of Serine/threonine-protein kinase pim-1 (P11309 whole entry): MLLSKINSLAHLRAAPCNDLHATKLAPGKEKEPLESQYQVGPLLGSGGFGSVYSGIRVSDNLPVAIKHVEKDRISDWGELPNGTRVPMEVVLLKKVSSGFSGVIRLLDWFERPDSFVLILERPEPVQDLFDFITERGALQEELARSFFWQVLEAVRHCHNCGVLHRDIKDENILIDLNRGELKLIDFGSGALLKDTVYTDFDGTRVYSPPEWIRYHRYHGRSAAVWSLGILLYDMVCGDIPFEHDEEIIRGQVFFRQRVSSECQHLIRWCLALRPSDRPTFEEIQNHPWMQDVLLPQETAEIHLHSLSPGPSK
Sequence of MAP kinase-activated protein kinase 3 (Q16644 whole entry): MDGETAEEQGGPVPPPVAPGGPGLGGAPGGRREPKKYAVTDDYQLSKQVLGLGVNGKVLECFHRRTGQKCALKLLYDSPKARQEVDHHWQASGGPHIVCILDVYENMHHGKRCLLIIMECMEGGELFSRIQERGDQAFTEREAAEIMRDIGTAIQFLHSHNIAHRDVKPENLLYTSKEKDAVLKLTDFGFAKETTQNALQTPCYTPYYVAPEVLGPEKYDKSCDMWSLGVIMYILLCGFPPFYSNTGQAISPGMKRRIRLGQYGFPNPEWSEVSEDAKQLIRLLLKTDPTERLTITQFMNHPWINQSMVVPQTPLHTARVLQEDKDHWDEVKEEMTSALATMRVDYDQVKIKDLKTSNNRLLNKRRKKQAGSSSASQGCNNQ
Sequence of Casein kinase II subunit alpha (P68400 whole entry): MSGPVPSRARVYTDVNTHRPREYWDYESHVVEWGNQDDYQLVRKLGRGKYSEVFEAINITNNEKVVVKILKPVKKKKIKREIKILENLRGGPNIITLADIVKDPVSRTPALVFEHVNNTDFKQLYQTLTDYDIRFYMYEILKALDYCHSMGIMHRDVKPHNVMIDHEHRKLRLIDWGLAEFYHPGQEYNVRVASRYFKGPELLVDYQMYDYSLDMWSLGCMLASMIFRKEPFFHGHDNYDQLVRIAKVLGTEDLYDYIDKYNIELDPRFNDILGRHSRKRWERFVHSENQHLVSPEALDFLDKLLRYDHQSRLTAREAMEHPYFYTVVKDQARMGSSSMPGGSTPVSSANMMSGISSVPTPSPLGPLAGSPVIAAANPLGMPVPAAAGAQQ
Sequence of Neuropeptides B/W receptor type 1 (P48145 whole entry): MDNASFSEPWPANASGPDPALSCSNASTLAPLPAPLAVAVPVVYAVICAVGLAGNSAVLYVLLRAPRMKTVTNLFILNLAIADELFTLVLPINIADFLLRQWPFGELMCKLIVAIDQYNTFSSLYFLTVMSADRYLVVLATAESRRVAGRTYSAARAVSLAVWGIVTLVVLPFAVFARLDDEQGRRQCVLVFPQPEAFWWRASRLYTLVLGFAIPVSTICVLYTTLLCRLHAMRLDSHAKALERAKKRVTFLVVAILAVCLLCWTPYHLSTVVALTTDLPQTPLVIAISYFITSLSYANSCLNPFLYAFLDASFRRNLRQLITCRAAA
Sequence of Lymphokine-activated killer T-cell-originated protein kinase (Q96KB5 whole entry): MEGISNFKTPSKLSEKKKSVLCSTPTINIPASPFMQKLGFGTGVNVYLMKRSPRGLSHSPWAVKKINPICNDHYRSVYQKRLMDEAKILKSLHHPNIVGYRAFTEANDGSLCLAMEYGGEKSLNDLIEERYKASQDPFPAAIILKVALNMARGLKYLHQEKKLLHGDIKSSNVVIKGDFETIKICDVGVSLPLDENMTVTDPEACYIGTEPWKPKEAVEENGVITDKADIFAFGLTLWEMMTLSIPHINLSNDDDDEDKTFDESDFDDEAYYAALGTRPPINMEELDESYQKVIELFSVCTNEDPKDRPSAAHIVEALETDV
Sequence of Serine/threonine-protein kinase Chk1 (O14757 whole entry): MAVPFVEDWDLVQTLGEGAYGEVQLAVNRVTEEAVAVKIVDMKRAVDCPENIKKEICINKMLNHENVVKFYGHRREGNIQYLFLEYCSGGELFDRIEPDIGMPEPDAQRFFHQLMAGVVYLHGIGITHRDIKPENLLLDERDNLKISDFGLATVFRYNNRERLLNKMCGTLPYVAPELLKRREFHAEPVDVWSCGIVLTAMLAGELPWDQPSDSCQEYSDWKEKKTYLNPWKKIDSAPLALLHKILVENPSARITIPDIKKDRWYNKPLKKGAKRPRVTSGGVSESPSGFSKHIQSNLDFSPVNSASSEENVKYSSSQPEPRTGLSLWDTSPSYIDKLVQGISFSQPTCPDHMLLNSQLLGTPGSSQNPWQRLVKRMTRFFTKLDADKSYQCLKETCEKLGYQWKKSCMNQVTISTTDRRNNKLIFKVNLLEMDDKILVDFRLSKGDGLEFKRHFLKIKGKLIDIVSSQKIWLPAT
Sequence of High affinity nerve growth factor receptor (P04629 whole entry): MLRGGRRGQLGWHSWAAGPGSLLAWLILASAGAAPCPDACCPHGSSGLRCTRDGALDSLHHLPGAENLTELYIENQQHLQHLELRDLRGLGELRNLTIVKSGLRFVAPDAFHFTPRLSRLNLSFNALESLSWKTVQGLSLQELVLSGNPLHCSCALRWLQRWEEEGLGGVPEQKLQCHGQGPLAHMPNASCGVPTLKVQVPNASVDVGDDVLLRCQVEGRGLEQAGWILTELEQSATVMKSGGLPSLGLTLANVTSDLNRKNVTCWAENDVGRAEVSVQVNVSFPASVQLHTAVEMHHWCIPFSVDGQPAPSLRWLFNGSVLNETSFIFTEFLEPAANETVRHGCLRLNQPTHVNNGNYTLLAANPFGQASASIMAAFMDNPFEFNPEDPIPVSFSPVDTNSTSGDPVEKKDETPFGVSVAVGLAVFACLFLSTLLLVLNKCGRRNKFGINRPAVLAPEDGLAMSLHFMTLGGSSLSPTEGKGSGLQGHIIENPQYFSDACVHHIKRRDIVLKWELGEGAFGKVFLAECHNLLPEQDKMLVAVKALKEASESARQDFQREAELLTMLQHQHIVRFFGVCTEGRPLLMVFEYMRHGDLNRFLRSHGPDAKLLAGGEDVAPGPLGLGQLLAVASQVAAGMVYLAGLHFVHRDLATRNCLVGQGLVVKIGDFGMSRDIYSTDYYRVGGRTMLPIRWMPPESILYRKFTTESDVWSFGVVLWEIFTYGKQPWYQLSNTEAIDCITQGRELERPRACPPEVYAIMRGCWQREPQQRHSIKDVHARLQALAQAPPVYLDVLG
Sequence of FAD-linked sulfhydryl oxidase ALR (P55789 whole entry): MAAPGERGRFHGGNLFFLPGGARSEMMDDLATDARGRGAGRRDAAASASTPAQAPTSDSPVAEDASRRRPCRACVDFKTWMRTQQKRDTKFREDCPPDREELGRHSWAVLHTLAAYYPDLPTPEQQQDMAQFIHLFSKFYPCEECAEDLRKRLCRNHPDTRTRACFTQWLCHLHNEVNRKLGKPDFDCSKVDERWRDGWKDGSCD
Sequence of Leukocyte tyrosine kinase receptor (P29376 whole entry): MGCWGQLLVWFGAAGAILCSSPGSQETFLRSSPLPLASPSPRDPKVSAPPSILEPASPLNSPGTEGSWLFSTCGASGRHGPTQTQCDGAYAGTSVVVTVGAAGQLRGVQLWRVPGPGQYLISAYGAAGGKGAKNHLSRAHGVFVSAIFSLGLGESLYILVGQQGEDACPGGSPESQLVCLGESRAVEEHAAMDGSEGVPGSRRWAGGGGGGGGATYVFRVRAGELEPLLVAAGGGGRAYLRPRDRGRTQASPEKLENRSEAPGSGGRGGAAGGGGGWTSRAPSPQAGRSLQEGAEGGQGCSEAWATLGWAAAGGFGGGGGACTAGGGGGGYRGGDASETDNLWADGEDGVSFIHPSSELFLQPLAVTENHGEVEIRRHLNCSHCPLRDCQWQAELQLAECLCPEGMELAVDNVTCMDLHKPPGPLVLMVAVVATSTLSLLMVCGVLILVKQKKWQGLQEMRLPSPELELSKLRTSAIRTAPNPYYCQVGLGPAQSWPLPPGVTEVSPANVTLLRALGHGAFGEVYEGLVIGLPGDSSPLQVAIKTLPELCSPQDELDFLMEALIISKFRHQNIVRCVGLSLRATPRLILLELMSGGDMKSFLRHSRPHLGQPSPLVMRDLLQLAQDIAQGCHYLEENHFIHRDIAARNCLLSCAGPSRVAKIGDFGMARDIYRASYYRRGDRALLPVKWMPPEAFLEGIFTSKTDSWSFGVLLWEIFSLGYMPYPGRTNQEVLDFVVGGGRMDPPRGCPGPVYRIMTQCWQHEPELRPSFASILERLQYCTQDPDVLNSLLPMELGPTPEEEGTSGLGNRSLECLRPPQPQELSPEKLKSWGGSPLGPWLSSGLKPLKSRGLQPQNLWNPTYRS
Sequence of Aurora kinase B (Q96GD4 whole entry): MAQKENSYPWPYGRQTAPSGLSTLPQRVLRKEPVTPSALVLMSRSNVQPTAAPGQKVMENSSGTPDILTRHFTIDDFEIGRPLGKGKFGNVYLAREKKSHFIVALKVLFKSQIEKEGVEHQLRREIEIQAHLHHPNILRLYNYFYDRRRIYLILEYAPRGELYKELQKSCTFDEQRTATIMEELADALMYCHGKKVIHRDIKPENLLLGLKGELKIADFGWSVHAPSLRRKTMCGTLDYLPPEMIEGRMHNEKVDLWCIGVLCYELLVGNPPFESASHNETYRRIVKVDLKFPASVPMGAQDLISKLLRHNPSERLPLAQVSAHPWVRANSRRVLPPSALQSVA
Sequence of Melanin-concentrating hormone receptor 1 (Q99705 whole entry, the tested form may be a part): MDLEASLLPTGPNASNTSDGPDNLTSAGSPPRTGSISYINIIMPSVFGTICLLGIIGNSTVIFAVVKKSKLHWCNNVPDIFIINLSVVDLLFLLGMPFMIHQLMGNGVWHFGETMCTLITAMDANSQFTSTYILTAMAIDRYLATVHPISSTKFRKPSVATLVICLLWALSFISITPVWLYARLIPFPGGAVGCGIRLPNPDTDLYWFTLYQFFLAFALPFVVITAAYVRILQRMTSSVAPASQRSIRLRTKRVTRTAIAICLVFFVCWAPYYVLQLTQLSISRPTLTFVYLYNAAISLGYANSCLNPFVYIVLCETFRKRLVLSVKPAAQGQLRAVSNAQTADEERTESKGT

Compound: Oc1ccc(CC2CC3CCN2CC3)cc1O (stereo unspecified)
AC50 [6]: 3810 nM (active) | IC50 [7]: 1080 nM (active) | IC50 [8]: 1150 nM (active)

Compound: COc1cc2ncnc(Nc3ccc(F)c(Cl)c3)c2cc1OCCCN1CCOCC1 [GEFITINIB]
Ki [9]: > 10000 nM (inactive) | Ki [10]: > 10000 nM (inactive)

Compound: CCOc1ccc(Sc2c(Cl)cnn(Cc3cccc4ccccc34)c2=O)cc1
IC50 [14]: 887 nM (active) | IC50 [15]: > 20000 nM (inactive)

Compound: c1ccc(-c2ncc3ccccn23)cc1
Ki (LIM domain kinase 1): 10000 nM (active) | Ki [16]: 25100 nM (active) | Ki [17]: > 100000 nM (inactive)

Second part, the compound after the results:

Ki [1]: 1580 nM (active) | Ki [2]: > 15800 nM (inactive) | Ki [3]: 2510 nM (active) | Ki [4]: > 100000 nM (inactive) | Ki [5]: 2510 nM (active)
Compound: CCc1cc(-c2n[nH]c(C)c2-c2ccc3c(c2)OCCO3)c(O)cc1O

Ki [1]: 1580 nM (active) | Ki [11]: 3980 nM (active) | Ki (Aurora kinase B): 1580 nM (active) | Ki [12]: 2000 nM (active)
Compound: COc1ccc(C=C2C(=O)ON=C2c2ccc(Br)cc2)cc1

Ki [13]: 2510 nM (active) | Ki (Wee1-like protein kinase): 200 nM (active)
Compound: CNc1nc(C)c(-c2ccnc(Nc3ccc(N4CCN(C(C)=O)CC4)cc3)n2)s1
